In paper PMC3228873 (Journal of medicinal chemistry, 2011):

Tests used:
TbrPDEB1 = TbrPDEB1 (Trypanosoma brucei, UniProt Q8WQX9); assay: TbrPDE assay, recombinant TbrPDEB1 catalytic domain; type: biochemical; conditions: for IC50: read-out: TbrPDEB1 IC50, Table 1, 10% DMSO, 25 μM cAMP, ">> x μM" if <25% inh at x μM, "> x μM" if 25-50% inh at x μM; for activity against TbrPDEB1 (in words): benchmark screening; for inhibition at 100 µM / inhibition at 10 µM: read-out: inhibition of TbrPDEB1
TbrPDEB2 = TbrPDEB2 (Trypanosoma brucei brucei, UniProt Q38F42); assay: TbrPDE assay, recombinant TbrPDEB2 catalytic domain; type: biochemical
[1] = tested on: Bloodstream forms of Trypanosoma brucei brucei strain 427; assay: Trypanosome cell culture assay; type: cell-based

How did the IC50 (TbrPDEB1) turn out when CS(=O)(=O)Oc1ccc2c(NC(N)=O)c(C(=O)c3ccc(Cl)cc3Cl)oc2c1 [BAY 19-8004] was run?
The IC50 was greater than 10 µM.

And the IC50 (TbrPDEB2; read-out: TbrPDEB2 IC50, Table 1, 10% DMSO, 25 μM cAMP, ">> x μM" if <25% inh at x μM, "> x μM" if 25-50% inh at x μM)?
The IC50 was greater than 10 µM.

With COc1ccc(C(=O)Nc2c(Cl)cncc2Cl)cc1OC1CCCC1 [Compound 1, piclamilast] as the compound, how does the “inhibition of TbrPDEB1” value (TbrPDEB1; single concentration, not stated for this compound) read?
Its value is “over 50%”.

COc1cc(C(=O)Nc2c(Cl)cncc2Cl)cc(OC)c1OC [Compound 9, N-(3,5-dichloropyridin-4-yl)-3,4,5-trimethoxybenzamide] was tested. Which “activity against TbrPDEB1 (in words)” value (TbrPDEB1) did it give?
The value was “without TbrPDEB1 or B2 activity”.

What about the “activity against TbrPDEB2 (in words)” value (TbrPDEB2) of the same compound?
The value was “without TbrPDEB1 or B2 activity”.

And the “cellular (trypanocidal) activity (in words)” value [1]?
The value was “did not show cellular activity”.

For OCCN(CCO)c1nc(N2CCCCC2)c2nc(N(CCO)CCO)nc(N3CCCCC3)c2n1 [Dipyridamole (3), dipyridamole], which inhibition at 100 µM (TbrPDEB1) is on record?
The inhibition at 100 µM was greater than 50%.

COc1cccc(Nc2c(C(N)=O)cnc3c(C)cc(S(=O)(=O)c4cccc(C(=O)N(C)C)c4)cc23)c1 [GSK-256066, (5)] was tested. Which inhibition at 10 µM (TbrPDEB1) did it give?
The inhibition at 10 µM was no less than 50%.

Which inhibition at 10 µM (TbrPDEB1) does the source give for Cc1noc(/C(=C/c2cccc(-c3cc(C(C)(C)S(C)(=O)=O)cc4cccnc34)c2)c2ccc(S(C)(=O)=O)cc2)n1 [L-454560 (4)] here?
Its inhibition at 10 µM is no less than 50%.

How did the IC50 (TbrPDEB1) turn out when CCCCOc1cc(CC2CNC(=O)N2)ccc1OC (stereo not shown) [RO 20-1724] was run?
The IC50 was greater than 100 µM.

Which “activity against TbrPDEB1 (in words)” value (TbrPDEB1) does the source give for O=C(Nc1c(Cl)cncc1Cl)c1ccc(OC(F)F)c(OCC2CC2)c1 [Roflumilast (6), roflumilast] here?
Its value is “essentially inactive”.

COc1ccc(C2CNC(=O)C2)cc1OC1CCCC1 (stereo not shown) [Rolipram (7), rolipram] was tested. Which “activity against TbrPDEB1 (in words)” value (TbrPDEB1) did it give?
The value was “essentially inactive”.

For COc1cc2c(cc1OC)-c1c/c(=N\c3c(C)cc(C)cc3C)n(C)c(=O)n1CC2 [Trequinsin (2), trequinsin], which inhibition at 100 µM (TbrPDEB1) is on record?
The inhibition at 100 µM was greater than 50%.
